This note sets out measurements from patent publication US7199113B2, “Pharmaceutically active compounds and methods of use thereof” (priority 1998, dated 2007).

The target of this assay is T1, human recombinant TF/VIIa complex (lipidated) (Homo sapiens, UniProt P13726).
T1 construct: Truncated recombinant human tissue factor (e.g. composed of 243 amino acids) is expressed in E. coli; host or cells: E. coli (TF)
As to the kind of experiment: TF/VIIa-dependent FX activation assay. In kind it is biochemical.

One may read the IC50 as the midpoint of a concentration-inhibition curve.

T1 sequence (P13726 33-275 limits assumed): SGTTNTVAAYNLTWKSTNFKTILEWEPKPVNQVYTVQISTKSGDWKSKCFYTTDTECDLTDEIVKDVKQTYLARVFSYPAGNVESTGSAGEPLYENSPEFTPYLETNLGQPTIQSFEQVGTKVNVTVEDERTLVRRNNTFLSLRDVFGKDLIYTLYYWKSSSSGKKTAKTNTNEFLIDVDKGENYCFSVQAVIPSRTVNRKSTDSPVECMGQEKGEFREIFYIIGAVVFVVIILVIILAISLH
T1 sequence (P08709 61-212 partner limits assumed): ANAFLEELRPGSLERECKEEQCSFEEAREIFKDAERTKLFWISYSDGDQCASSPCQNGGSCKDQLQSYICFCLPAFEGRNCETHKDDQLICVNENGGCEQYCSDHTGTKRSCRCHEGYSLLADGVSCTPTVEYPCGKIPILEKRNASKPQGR
T1 sequence (P08709 213-466 partner limits assumed): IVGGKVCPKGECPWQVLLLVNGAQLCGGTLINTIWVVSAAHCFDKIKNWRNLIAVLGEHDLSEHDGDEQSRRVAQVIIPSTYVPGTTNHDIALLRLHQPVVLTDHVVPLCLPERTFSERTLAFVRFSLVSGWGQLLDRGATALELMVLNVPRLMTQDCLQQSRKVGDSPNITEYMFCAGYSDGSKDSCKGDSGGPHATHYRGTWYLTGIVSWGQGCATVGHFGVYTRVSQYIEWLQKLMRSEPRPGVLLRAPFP

Consider `O=P(O)(O)C(CNc1cccc(O)c1)P(=O)(O)O` [Compound 1, 1-(bisphosponate)-2-amino(3-hydroxyphenyl)ethyl], for which the IC50 (TF/VIIa, FX and compound added simultaneously, FX 5 nM) amounted to 18.1 µM; the IC50 (TF/VIIa, FX and compound added simultaneously, FX 30 nM) came to 33.2 µM; the IC50 (compound preincubated with TF/VIIa 15 minutes at 37° C. prior to FX, FX 5 nM) was 8.3 µM.
